# Experimental data from ChEMBL document CHEMBL3817825, “Synthesis and biological evaluation of Schiff base-linked imidazolyl naphthalimides as novel potential anti-MRSA agents” (2016).
# Calls of active or inactive are those of the source. The rule behind the calls is not given here.
# What was measured:
# Staphylococcus aureus [1] = test: Antibacterial activity against methicillin-resistant Staphylococcus aureus N315 after 24 hrs by two fold serial dilution method; format: functional; settings: N315, 24 h
# Candida albicans = test: Antifungal activity against Candida albicans ATCC76615 after 24 hrs by two fold serial dilution method; format: functional; settings: ATCC76615, 24 h
# Staphylococcus aureus [2] = test: Potency index, ratio of norfloxacin MIC to compound MIC for methicillin-resistant Staphylococcus aureus N315; format: functional
# Calf thymus DNA [3] = test: Binding affinity to neutral red bound calf thymus DNA assessed as increase in absorption at 460 nm at 0 to 10.5 X 10^-5 mol/L by UV-Vis spectroscopy; format: nucleic-acid assay; settings: Bos taurus
# Staphylococcus aureus [4] = test: Ratio of MIC for methicillin-resistant Staphylococcus aureus N315 after 10 passages to MIC for methicillin-resistant Staphylococcus aureus N315 before 10 passages; format: functional
# Staphylococcus aureus [5] = test: Potency index, ratio of chloromycin MIC to compound MIC for methicillin-resistant Staphylococcus aureus N315; format: functional
# Staphylococcus aureus [6] = test: Antibacterial activity against methicillin-resistant Staphylococcus aureus N315 assessed as membrane permeabilization at 12 times MIC monitored for 2 hrs by propidium iodide staining method; format: functional, organism-based
# Bacillus [7] = test: Antibacterial activity against Bacillus proteus ATCC13315 after 24 hrs by two fold serial dilution method; format: functional; settings: ATCC13315, 24 h
# Bacillus subtilis = test: Antibacterial activity against Bacillus subtilis ATCC6633 after 24 hrs by two fold serial dilution method; format: functional; settings: ATCC6633, 24 h
# Salmonella typhi = test: Antibacterial activity against Bacillus typhi after 24 hrs by two fold serial dilution method; format: functional, Salmonella enterica subsp. enterica serovar Typhi; settings: Salmonella enterica
# Cyberlindnera jadinii [8] = test: Antifungal activity against Candida utilis ATCC9950 after 24 hrs by two fold serial dilution method; format: functional; settings: Williopsis jadinii, ATCC9950, 24 h
# Escherichia coli [9] = test: Antibacterial activity against Escherichia coli DH52 after 24 hrs by two fold serial dilution method; format: functional; settings: DH52, 24 h
# Staphylococcus aureus [10] = test: Bactericidal activity against methicillin-resistant Staphylococcus aureus N315 assessed as reduction in viable bacterial count at 6 times MIC within 1.5 hrs by time kill assay; format: functional
# Pseudomonas aeruginosa = test: Antibacterial activity against Pseudomonas aeruginosa ATCC27853 after 24 hrs by two fold serial dilution method; format: functional; settings: ATCC27853, 24 h
# Candida = test: Antifungal activity against Candida mycoderma ATCC10231 after 24 hrs by two fold serial dilution method; format: functional; settings: ATCC10231, 24 h
# Micrococcus luteus = test: Antibacterial activity against Micrococcus luteus ATCC4698 after 24 hrs by two fold serial dilution method; format: functional; settings: ATCC4698, 24 h
# Staphylococcus aureus [11] = test: Antibacterial activity against Staphylococcus aureus ATCC25923 after 24 hrs by two fold serial dilution method; format: functional; settings: ATCC25923, 24 h
# Bacillus [12] = test: Antibacterial activity against Bacillus proteus ATCC13315 assessed as membrane permeabilization at 12 times MIC monitored for 2 hrs by propidium iodide staining method; format: functional, organism-based
# Saccharomyces cerevisiae = test: Antifungal activity against Beer yeast ATCC9763 after 24 hrs by two fold serial dilution method; format: functional; settings: ATCC9763, 24 h
# Staphylococcus aureus [13] = test: Antibacterial activity against methicillin-resistant Staphylococcus aureus N315 at 0.5 times MIC after 10 passages by two fold serial dilution method; format: functional, organism-based
# Escherichia coli [14] = test: Antibacterial activity against Escherichia coli JM109 after 24 hrs by two fold serial dilution method; format: functional; settings: JM109, 24 h
# Calf thymus DNA [15] = test: Binding affinity to calf thymus DNA assessed as hypochromism at 260 nm at 0 to 9 X 10^-5 mol/L by UV-Vis spectroscopy; format: nucleic-acid assay; settings: Bos taurus
# Shigella dysenteriae = test: Antibacterial activity against Shigella dysenteriae after 24 hrs by two fold serial dilution method; format: functional
# Aspergillus flavus = test: Antifungal activity against Aspergillus flavus ATCC204304 after 24 hrs by two fold serial dilution method; format: functional; settings: ATCC204304, 24 h
# Calf thymus DNA [16] = test: Binding affinity to calf thymus DNA at 260 nm by UV-Vis spectroscopy; format: nucleic-acid assay; settings: Bos taurus
# Cyberlindnera jadinii [17] = test: Potency index, ratio of fluconazole MIC to compound MIC for Candida utilis ATCC9950; format: functional
SMILES,MIC (Staphylococcus aureus [1]) [µM],MIC (Candida albicans) [µM],MIC (Bacillus [7]) [µM],MIC (Bacillus subtilis) [µM],MIC (Salmonella typhi) [µM],MIC (Cyberlindnera jadinii [8]) [µM],MIC (Escherichia coli [9]) [µM],MIC (Pseudomonas aeruginosa) [µM],MIC (Candida) [µM],MIC (Micrococcus luteus) [µM],MIC (Staphylococcus aureus [11]) [µM],MIC (Saccharomyces cerevisiae) [µM],MIC (Escherichia coli [14]) [µM],MIC (Shigella dysenteriae) [µM],MIC (Aspergillus flavus) [µM],further results
CCCCc1nc(Cl)c(/C=N/N2C(=O)c3cccc4c(N5CCOCC5)ccc(c34)C2=O)n1Cc1ccc([N+](=O)[O-])cc1,3,3,110,210,0.11,10,420,50,50,850,210,420,50,0.11,110,Ratio (Staphylococcus aureus [2]): 7; Activity (Calf thymus DNA [3]): Active; Ratio (Staphylococcus aureus [4]): <=100; Ratio (Staphylococcus aureus [5]): 17; Activity (Staphylococcus aureus [6]): Active; Activity (Staphylococcus aureus [10]): >3 log10CFU/ml; Activity (Bacillus [12]): Active; Activity (Staphylococcus aureus [13]): Active; Activity (Calf thymus DNA [15]): Active; K (Calf thymus DNA [16]): 0.59 ×10⁴ L/mol
CCCCCCCCCCn1c(CCCC)nc(Cl)c1/C=N/N1C(=O)c2cccc3c(N4CCOCC4)ccc(c23)C1=O,30,210,210,30,0.84,3,420,420,210,840,420,420,840,0.1,210,Ratio (Cyberlindnera jadinii [17]): 10
